Laboratory results: ChEMBL document CHEMBL1152564, “Antagonists of the human A(2A) receptor. Part 6: Further optimization of pyrimidine-4-carboxamides” (Bioorg Med Chem, 2009)

Key:
Type in all cases: ADME, organism-based
[1] = Volume of distribution in rat; settings: in vivo
[2] = Oral bioavailability in rat; settings: in vivo
[3] = Terminal half life in rat; settings: in vivo, read-out: beta t1/2 (converted)
[4] = Tmax in rat plasma
[5] = Clearance in rat; settings: in vivo

Work on Cc1cccc(CNC(=O)c2cc(-c3ccc(C)o3)nc(N)n2)n1 yielded a Vd [1] of 0.7 L/kg, a bioavailability [2] of 3% and a half-life [3] of 3 h. It also gave a Tmax [4] of 0.25 h and a clearance [5] of 1.95 L/h/kg.
